Assay results reported in US8471005B2 (Cephalon, Inc., priority 2008, dated 2013).
pIC50: −log10 of the molar value. Read-outs that look alike come from different tables or passages of the source.

Tests used:
ALK = molecular target: T1, ALK (Homo sapiens, UniProt Q9UM73); test: ALK Kinase Assay (ELISA/TRF, PLC-γ substrate); assay type: biochemical; details: read-out: ALK Potency
T1 construct: host or cells: baculovirus expression system
Summary of the method: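 Read-out is time-resolved fluorescence from a Eu-N1-labeled PT66 antibody that binds phosphorylated PLC-γ, the substrate coated at 10 μg/mL in TBS. ALK at 30 ng/ml starts the reaction, which runs 15 minutes at 37° C.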

JAK2 = molecular target: T2, JAK2 (Homo sapiens, UniProt O60674); test: Recombinant Human JAK2 Kinase Assay (TRF); assay type: biochemical; details: read-out: JAK2 Potency
T2 construct: host or cells: baculovirus expression system
Summary of the method: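 Europium-labelled PY100 antibody reported tyrosine phosphorylation of a Neutravidin-captured biotinyl 15-mer peptide by JAK2 (baculovirus-expressed, 15 ng/ml). Conditions: 20 mM HEPES pH 7.2, 0.2 μM ATP, 1 mM MnCl2, 0.1% BSA, DMSO 2.5% final, 20 min at room temperature.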

[1] = ALK kinase inhibition, 1 μM ATP
[2] = JAK2 kinase inhibition, 0.2 μM ATP

T2 sequence (O60674 whole entry): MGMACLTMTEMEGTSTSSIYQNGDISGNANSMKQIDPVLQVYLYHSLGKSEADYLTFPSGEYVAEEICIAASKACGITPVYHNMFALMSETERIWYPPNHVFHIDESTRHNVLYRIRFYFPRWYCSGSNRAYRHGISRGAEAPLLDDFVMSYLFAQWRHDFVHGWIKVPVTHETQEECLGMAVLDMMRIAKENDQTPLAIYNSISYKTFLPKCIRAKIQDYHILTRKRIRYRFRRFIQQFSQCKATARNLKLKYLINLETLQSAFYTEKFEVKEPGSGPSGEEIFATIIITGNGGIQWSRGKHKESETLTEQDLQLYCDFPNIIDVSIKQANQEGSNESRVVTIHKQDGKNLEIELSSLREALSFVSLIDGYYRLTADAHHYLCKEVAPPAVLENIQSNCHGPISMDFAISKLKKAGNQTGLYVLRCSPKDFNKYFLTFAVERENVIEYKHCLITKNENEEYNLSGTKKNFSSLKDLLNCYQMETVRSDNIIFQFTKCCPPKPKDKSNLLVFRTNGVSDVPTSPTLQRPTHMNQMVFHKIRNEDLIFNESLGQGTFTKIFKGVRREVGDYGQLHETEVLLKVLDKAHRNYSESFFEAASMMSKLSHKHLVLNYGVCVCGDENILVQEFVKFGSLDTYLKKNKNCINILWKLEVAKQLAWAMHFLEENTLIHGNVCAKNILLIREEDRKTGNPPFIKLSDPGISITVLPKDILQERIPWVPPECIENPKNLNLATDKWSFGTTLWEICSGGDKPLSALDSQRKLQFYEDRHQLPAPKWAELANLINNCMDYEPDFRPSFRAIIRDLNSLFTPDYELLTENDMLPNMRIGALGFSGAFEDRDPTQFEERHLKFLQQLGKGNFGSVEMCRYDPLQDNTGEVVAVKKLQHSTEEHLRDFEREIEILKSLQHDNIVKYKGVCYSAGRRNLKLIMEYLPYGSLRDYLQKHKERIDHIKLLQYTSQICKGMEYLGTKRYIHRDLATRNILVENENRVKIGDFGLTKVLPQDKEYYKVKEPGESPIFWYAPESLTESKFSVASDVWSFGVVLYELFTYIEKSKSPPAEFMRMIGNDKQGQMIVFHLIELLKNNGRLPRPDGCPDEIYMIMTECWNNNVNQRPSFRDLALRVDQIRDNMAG
T1 sequence (Q9UM73 19-1620): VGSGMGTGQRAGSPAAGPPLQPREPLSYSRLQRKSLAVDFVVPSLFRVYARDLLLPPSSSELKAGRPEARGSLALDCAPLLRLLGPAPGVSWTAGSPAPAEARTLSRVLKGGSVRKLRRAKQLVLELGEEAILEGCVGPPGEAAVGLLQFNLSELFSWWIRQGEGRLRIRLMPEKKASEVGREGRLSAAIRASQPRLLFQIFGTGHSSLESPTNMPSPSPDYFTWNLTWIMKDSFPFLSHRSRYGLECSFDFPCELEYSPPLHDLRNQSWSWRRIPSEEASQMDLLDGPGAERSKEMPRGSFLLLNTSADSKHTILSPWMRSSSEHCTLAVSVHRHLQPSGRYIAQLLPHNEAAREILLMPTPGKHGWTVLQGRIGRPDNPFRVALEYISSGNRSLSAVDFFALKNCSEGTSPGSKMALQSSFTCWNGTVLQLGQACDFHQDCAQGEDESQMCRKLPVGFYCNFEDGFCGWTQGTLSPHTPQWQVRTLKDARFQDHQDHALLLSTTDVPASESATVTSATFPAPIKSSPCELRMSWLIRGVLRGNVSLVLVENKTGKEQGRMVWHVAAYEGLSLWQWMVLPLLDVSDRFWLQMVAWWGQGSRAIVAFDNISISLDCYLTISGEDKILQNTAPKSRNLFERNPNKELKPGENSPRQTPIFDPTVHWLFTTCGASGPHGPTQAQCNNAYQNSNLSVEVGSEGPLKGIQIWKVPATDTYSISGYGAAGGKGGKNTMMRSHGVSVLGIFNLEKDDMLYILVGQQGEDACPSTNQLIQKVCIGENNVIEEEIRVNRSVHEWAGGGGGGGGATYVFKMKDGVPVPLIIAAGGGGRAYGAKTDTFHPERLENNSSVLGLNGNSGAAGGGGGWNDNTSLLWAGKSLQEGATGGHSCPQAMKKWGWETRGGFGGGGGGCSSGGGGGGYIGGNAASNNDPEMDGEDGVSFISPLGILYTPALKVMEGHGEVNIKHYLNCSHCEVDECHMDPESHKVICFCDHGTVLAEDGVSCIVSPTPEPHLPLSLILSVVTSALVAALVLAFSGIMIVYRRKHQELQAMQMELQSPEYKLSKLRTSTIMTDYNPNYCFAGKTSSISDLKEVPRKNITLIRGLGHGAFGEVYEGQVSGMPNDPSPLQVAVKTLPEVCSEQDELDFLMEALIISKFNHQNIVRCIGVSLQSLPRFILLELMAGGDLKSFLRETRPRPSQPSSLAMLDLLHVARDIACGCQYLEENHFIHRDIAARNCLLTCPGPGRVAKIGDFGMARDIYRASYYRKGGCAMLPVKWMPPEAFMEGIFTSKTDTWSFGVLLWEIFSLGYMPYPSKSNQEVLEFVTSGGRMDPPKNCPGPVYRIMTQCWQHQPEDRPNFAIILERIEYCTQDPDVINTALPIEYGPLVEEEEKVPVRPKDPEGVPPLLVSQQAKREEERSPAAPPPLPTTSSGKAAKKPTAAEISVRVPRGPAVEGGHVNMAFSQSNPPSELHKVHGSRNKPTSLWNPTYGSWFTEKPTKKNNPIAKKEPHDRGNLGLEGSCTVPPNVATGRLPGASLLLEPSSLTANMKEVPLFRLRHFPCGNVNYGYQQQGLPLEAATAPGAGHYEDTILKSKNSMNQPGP

Compound: COc1cc(Nc2ncc3ccc(-c4ccccc4OC)n3n2)cc(OC)c1 [Example 158, (3,5-Dimethoxy-phenyl)-[7-(2-methoxy-phenyl)-pyrrolo[2,1-f][1,2,4]triazin-2-yl]-amine]
- pIC50 (ALK; ALK Kinase Inhibition): 6.00 to 7.00
- pIC50 (JAK2; JAK2 Kinase Inhibition): > 7.00

Compound: CC(C)(C)C(=O)Nc1ccccc1-c1ccc2cnc(Nc3ccc(N4CCOCC4)cc3)nn12 [Example 401, 2,2-Dimethyl-N-{2-[2-(4-morpholin-4-yl-phenylamino)-pyrrolo[2,1-f][1,2,4]triazin-7-yl]-phenyl}-propionamide]
- pIC50 (ALK; ALK Kinase Inhibition): < 5.00
- pIC50 (JAK2; JAK2 Kinase Inhibition): > 7.00

Compound: O=S(=O)(c1cccc(-c2ccc3cnc(Nc4ccc(-c5cccnc5)cc4)nn23)c1)N1CCCC1 [Example 1086, (4-Pyridin-3-yl-phenyl)-{7-[3-(pyrrolidine-1-sulfonyl)-phenyl]-pyrrolo[2,1-f][1,2,4]triazin-2-yl}-amine]
- pIC50 (ALK; [1]): < 5.00
- pIC50 (JAK2; [2]): > 7.00

Compound: COc1cc(N2CCC(N3CCN(C)CC3)CC2)ccc1Nc1ncc2ccc(-c3ccccc3S(=O)(=O)N(C)C)n2n1 [Example 532, 2-(2-{2-Methoxy-4-[4-(4-methyl-piperazin-1-yl)-piperidin-1-yl]-phenylamino}-pyrrolo[2,1-f][1,2,4]triazin-7-yl)-N,N-dimethyl-benzenesulfonamide]
- pIC50 (ALK; [1]): > 7.00
- pIC50 (JAK2; [2]): 5.00 to 6.00

Compound: COc1ccc(-c2ccc3cnc(Nc4cccc(C5CNCCN5)c4)nn23)cn1 (centres unmarked) [Example 1566, [7-(6-Methoxy-pyridin-3-yl)-pyrrolo[2,1-f][1,2,4]triazin-2-yl]-(3-piperazin-2-yl-phenyl)-amine]
- pIC50 (ALK; ALK Kinase Inhibition): 5.00 to 6.00
- pIC50 (JAK2; JAK2 Kinase Inhibition): > 7.00

Compound: COc1ccc(-c2ccc3cnc(Nc4cccc(NC(=O)CN(C)C)c4)nn23)cn1 [Example 899, 2-Dimethylamino-N-{3-[7-(6-methoxy-pyridin-3-yl)-pyrrolo[2,1-f][1,2,4]triazin-2-ylamino]-phenyl}-acetamide]
- pIC50 (ALK; [1]): 6.00 to 7.00
- pIC50 (JAK2; [2]): > 7.00

Compound: COc1cc(Nc2ncc3ccc(-c4cccc(Cl)c4)n3n2)cc(OC)c1 [Example 156, [7-(3-Chloro-phenyl)-pyrrolo[2,1-f][1,2,4]triazin-2-yl]-(3,5-dimethoxy-phenyl)-amine]
- pIC50 (ALK; ALK Kinase Inhibition): < 5.00
- pIC50 (JAK2; JAK2 Kinase Inhibition): > 7.00

Compound: 4-[2-(4-Morpholin-4-yl-phenylamino)-pyrrolo[2,1-f][1,2,4]triazin-7-yl]-piperidine-1-carboxylic acid tert-butyl ester [Example 1128]
- pIC50 (ALK; [1]): < 5.00
- pIC50 (JAK2; [2]): > 7.00

Compound: CN1CCN(c2ccc(Nc3ncc4ccc(C5=CCN(C(=O)OC(C)(C)C)CC5)n4n3)cc2)CC1 [Example 1135, 4-{2-[4-(4-Methyl-piperazin-1-yl)-phenylamino]-pyrrolo[2,1-f][1,2,4]triazin-7-yl}-3,6-dihydro-2H-pyridine-1-carboxylic acid tert-butyl ester]
- pIC50 (ALK; [1]): 6.00 to 7.00
- pIC50 (JAK2; [2]): > 7.00

Compound: COc1ccc(Cl)cc1-c1ccc2cnc(Nc3ccc(N4CCOCC4)c(F)c3)nn12 [Example 188, [7-(5-Chloro-2-methoxy-phenyl)-pyrrolo[2,1-f][1,2,4]triazin-2-yl]-(3-fluoro-4-morpholin-4-yl-phenyl)-amine]
- pIC50 (ALK; ALK Kinase Inhibition): 5.00 to 6.00
- pIC50 (JAK2; JAK2 Kinase Inhibition): > 7.00

Compound: CN1CCN(c2ccc(Nc3ncc4ccc(-c5ccc(CO)cc5)n4n3)cc2)CC1 [Example 1497, (4-{2-[4-(4-Methyl-piperazin-1-yl)-phenylamino]-pyrrolo[2,1-f][1,2,4]triazin-7-yl}-phenyl)-methanol]
- pIC50 (ALK; ALK Kinase Inhibition): > 7.00
- pIC50 (JAK2; JAK2 Kinase Inhibition): > 7.00

Compound: COc1cc(N2CCC(N3CCCOCC3)CC2)ccc1Nc1ncc2ccc(-c3ccccc3OC)n2n1 [Example 780, [2-Methoxy-4-(4-[1,4]oxazepan-4-yl-piperidin-1-yl)-phenyl]-[7-(2-methoxy-phenyl)-pyrrolo[2,1-f][1,2,4]triazin-2-yl]-amine]
- pIC50 (ALK; [1]): > 7.00
- pIC50 (JAK2; [2]): > 7.00

Compound: N#CCCn1cc(-c2ccc3cnc(Nc4ccc(C5CCN(CC(N)=O)CC5)cc4)nn23)cn1 [Example 933, 2-[4-(4-{7-[1-(2-Cyano-ethyl)-1H-pyrazol-4-yl]-pyrrolo[2,1-f][1,2,4]triazin-2-ylamino}-phenyl)-piperidin-1-yl]-acetamide]
- pIC50 (ALK; [1]): 6.00 to 7.00
- pIC50 (JAK2; [2]): > 7.00

Compound: c1cncc(-c2ccc3cnc(-n4cnc5cnccc54)nn23)c1 [Example 325, 1-(7-Pyridin-3-yl-pyrrolo[2,1-f][1,2,4]triazin-2-yl)-1H-imidazo[4,5-c]pyridine]
- pIC50 (ALK; ALK Kinase Inhibition): 5.00 to 6.00
- pIC50 (JAK2; JAK2 Kinase Inhibition): 5.00 to 6.00

Compound: COc1ccc(-c2ccc3cnc(Nc4ccc5c(c4)NC(=O)C5(C)C)nn23)cn1 [Example 658, 6-[7-(6-Methoxy-pyridin-3-yl)-pyrrolo[2,1-f][1,2,4]triazin-2-ylamino]-3,3-dimethyl-1,3-dihydro-indol-2-one]
- pIC50 (ALK; [1]): < 5.00
- pIC50 (JAK2; [2]): > 7.00

Compound: CS(=O)(=O)Nc1ccncc1-c1ccc2cnc(Nc3ccc(N4CCOCC4)cc3)nn12 [Example 1219, N-{3-[2-(4-Morpholin-4-yl-phenylamino)-pyrrolo[2,1-f][1,2,4]triazin-7-yl]-pyridin-4-yl}-methanesulfonamide]
- pIC50 (ALK; [1]): 5.00 to 6.00
- pIC50 (JAK2; [2]): 6.00 to 7.00

Compound: CC(C)S(=O)(=O)c1ccc(-c2ccc3cnc(Nc4ccc(N5CCOCC5)cc4)nn23)cc1 [Example 199, (4-Morpholin-4-yl-phenyl)-{7-[4-(propane-2-sulfonyl)-phenyl]-pyrrolo[2,1-f][1,2,4]triazin-2-yl}-amine]
- pIC50 (ALK; ALK Kinase Inhibition): 5.00 to 6.00
- pIC50 (JAK2; JAK2 Kinase Inhibition): > 7.00

Compound: CC(C)(C)NS(=O)(=O)c1cccc(-c2ccc3cnc(Nc4ccc5c(c4)C(N)C(O)C5)nn23)c1 (centres unmarked) [Example 680, 3-[2-(3-Amino-2-hydroxy-indan-5-ylamino)-pyrrolo[2,1-f][1,2,4]triazin-7-yl]-N-tert-butyl-benzenesulfonamide]
- pIC50 (ALK; [1]): 6.00 to 7.00
- pIC50 (JAK2; [2]): > 7.00

Compound: COc1ccccc1-c1ccc2cnc(Nc3ccc4c(c3OC)CC(N3CCOCC3)CCC4)nn12 (racemic) [Example 768, (±)-1-Methoxy-8-morpholin-4-yl-6,7,8,9-tetrahydro-5H-enzocyclohepten-2-yl)-[7-(2-methoxy-phenyl)-pyrrolo[2,1-f][1,2,4]triazin-2-yl]-amine]
- pIC50 (ALK; [1]): 6.00 to 7.00
- pIC50 (JAK2; [2]): 6.00 to 7.00

Compound: CN1CCC(c2ccc(Nc3ncc4ccc(-c5cccc(CCC#N)c5)n4n3)cc2)CC1 [Example 1149, 3-(3-{2-[4-(1-Methyl-piperidin-4-yl)-phenylamino]-pyrrolo[2,1-f][1,2,4]triazin-7-yl}-phenyl)-propionitrile]
- pIC50 (ALK; [1]): > 7.00
- pIC50 (JAK2; [2]): > 7.00

Compound: CN1CCN(C)C(c2cccc(Nc3ncc4ccc(-c5cccc(S(=O)(=O)N6CCOCC6)c5)n4n3)c2)C1=O (centres unmarked) [Example 1078, 1,4-Dimethyl-3-(3-{7-[3-(morpholine-4-sulfonyl)-phenyl]-pyrrolo[2,1-f][1,2,4]triazin-2-ylamino}-phenyl)-piperazin-2-one]
- pIC50 (ALK; [1]): < 5.00
- pIC50 (JAK2; [2]): > 7.00

Compound: COc1cc(C2CCN(C[C@H](Oc3ncc4ccc(-c5ccccc5N(C)S(C)(=O)=O)n4n3)C(F)(F)F)CC2)ccc1N [Example 785, N-[2-(2-{(S)-1-[4-(4-Amino-3-methoxy-phenyl)-piperidin-1-ylmethyl]-2,2,2-trifluoro-ethoxy}-pyrrolo[2,1-f][1,2,4]triazin-7-yl)-phenyl]-N-methyl-methanesulfonamide]
- pIC50 (ALK; [1]): < 5.00
- pIC50 (JAK2; [2]): < 5.00
